According to patent US20100204203A1, “Chemical Compounds 637: Pyridopyrimidinediones as PDE4 Inhibitors” (priority 2007, published 2010):

Target: recombinant Human Phosphodiesterase B2 (PDE4B2) (Homo sapiens, UniProt Q07343)
Assay: Human Phosphodiesterase B2 Radiometric Assay (yttrium silicate SPA beads, [3H]cyclic AMP)
Type: biochemical
Conditions: recombinant human PDE4B2, radiometric SPA assay, 8 nM [3H]cyclic AMP; read-out: PDE4B2 pIC50 (converted)
Summary of the method: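 Compounds were preincubated 30 min at 30 °C with 0.1 mg/mL PDE4B2 in 50 mM HEPES pH 7.5, 8.3 mM MgCl2, 1.7 mM EGTA, 0.01% Brij 35. Then 8 nM [3H]cAMP was added for 20 min, stopped with yttrium silicate SPA beads plus 18 mM ZnSO4 capturing product 5′AMP; pIC50 by curve fitting.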

Sequence of recombinant Human Phosphodiesterase B2 (PDE4B2) (Q07343 1-564 isoform Q07343-2): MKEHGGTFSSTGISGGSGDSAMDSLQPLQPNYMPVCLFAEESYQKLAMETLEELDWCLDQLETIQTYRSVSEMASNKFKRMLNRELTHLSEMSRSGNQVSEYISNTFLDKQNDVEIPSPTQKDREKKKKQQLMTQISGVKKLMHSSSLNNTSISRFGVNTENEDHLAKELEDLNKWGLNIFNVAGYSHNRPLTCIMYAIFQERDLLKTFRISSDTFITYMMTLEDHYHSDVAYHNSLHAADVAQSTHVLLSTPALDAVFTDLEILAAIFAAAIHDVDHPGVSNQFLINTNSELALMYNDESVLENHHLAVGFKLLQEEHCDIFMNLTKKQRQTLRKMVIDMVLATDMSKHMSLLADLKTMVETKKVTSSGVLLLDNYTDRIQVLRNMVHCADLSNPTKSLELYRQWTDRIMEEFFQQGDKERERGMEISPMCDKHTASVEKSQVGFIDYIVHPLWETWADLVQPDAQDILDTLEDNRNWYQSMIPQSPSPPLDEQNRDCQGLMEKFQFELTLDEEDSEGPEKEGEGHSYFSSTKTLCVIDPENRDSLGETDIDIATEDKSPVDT

Question: With `Cc1cc(C(=O)N[C@H]2CC[C@@H](n3c(=O)c4cc(F)cnc4n(-c4cccc(-c5ccc(CN6CCN(c7ccccn7)CC6)cc5)c4)c3=O)CC2)nn1C` [Example 214, N-{cis-4-[6-fluoro-2,4-dioxo-1-{4′-[(4-pyridin-2-ylpiperazin-1-yl)methyl]biphenyl-3-yl}-1,4-dihydropyrido[2,3-d]pyrimidin-3(2H)-yl]cyclohexyl}-1,5-dimethyl-1H-pyrazole-3-carboxamide] as the molecule, how does the IC50 read?
Answer: 0.0251 nM

Question: Which IC50 does the source give for `CN1CCCN(Cc2ccc(-c3cccc(-n4c(=O)n([C@H]5CC[C@@H](NC(=O)c6cc7ccccc7cn6)CC5)c(=O)c5cc(F)cnc54)c3)cc2)CC1` [Example 359, N-{cis-4-[6-fluoro-1-{4′-[(4-methyl-1,4-diazepan-1-yl)methyl]biphenyl-3-yl}-2,4-dioxo-1,4-dihydropyrido[2,3-d]pyrimidin-3(2H)-yl]cyclohexyl} isoquinoline-3-carboxamide] here?
Answer: 0.0251 nM

Question: With `O=C(N[C@H]1CC[C@@H](n2c(=O)c3cc(F)cnc3n(-c3cccc(-c4ccc(CCCN5CCNCC5)cc4)c3)c2=O)CC1)c1cn2cc(F)ccc2n1` [Example 97, 6-fluoro-N-{cis-4-[6-fluoro-2,4-dioxo-1-[4′-(3-piperazin-1-ylpropyl)biphenyl-3-yl]-1,4-dihydropyrido[2,3-d]pyrimidin-3(2H)-yl]cyclohexyl}imidazo[1,2-a]pyridine-2-carboxamide] as the molecule, how does the IC50 read?
Answer: 0.00631 nM

Question: Which IC50 does the source give for `O=c1c2cc(F)cnc2n(-c2cccc(-c3ccc(CN4CCNCC4)cc3)c2)c(=O)n1[C@H]1CC[C@@H](NCc2cn3cc(F)ccc3n2)CC1` [Example 75, 6-fluoro-3-(cis-4-{[(6-fluoroimidazo[1,2-a]pyridin-2-yl)methyl]amino}cyclohexyl)-1-[4′-(piperazin-1-ylmethyl)biphenyl-3-yl]pyrido[2,3-d]pyrimidine-2,4(1H,3H)-dione] here?
Answer: 0.316 nM

Question: With `C[C@@H]1CN(Cc2ccc(-c3cccc(-n4c(=O)n([C@H]5CC[C@@H](NC(=O)c6cn7cc(F)ccc7n6)CC5)c(=O)c5cc(F)cnc54)c3)cc2)C[C@H](C)N1` [Example 270, N-{cis-4-[1-(4′-{[(3R,5S)-3,5-Dimethylpiperazin-1-yl]methyl}biphenyl-3-yl)-6-fluoro-2,4-dioxo-1,4-dihydropyrido[2,3-d]pyrimidin-3(2H)-yl]cyclohexyl}-6-fluoroimidazo[1,2-a]pyridine-2-carboxamide] as the molecule, how does the IC50 read?
Answer: 0.00631 nM

Question: How did the IC50 turn out when `CNCCNCc1ccc(-c2cccc(-n3c(=O)n([C@H]4CC[C@@H](NC(=O)c5cn6cc(F)ccc6n5)CC4)c(=O)c4cc(F)cnc43)c2)cc1` [Example 64, 6-fluoro-N-{cis-4-[6-fluoro-1-[4′-({[2-(methylamino)ethyl]amino}methyl)biphenyl-3-yl]-2,4-dioxo-1,4-dihydropyrido[2,3-a]pyrimidin-3(2H)-yl]cyclohexyl}imidazo[1,2-a]pyridine-2-carboxamide] was run?
Answer: 0.0794 nM

Question: Which IC50 does the source give for `O=C(N[C@H]1CC[C@@H](n2c(=O)c3cc(F)cnc3n(-c3cccc(-c4ccc(CN5CCN(C6CCCC6)CC5)cc4)c3)c2=O)CC1)c1cn2c(n1)CCCC2` [Example 221, N-{cis-4-[1-{4′-[(4-cyclopentylpiperazin-1-yl)methyl]biphenyl-3-yl}-6-fluoro-2,4-dioxo-1,4-dihydropyrido[2,3-d]pyrimidin-3(2H)-yl]cyclohexyl}-5,6,7,8-tetrahydroimidazo[1,2-a]pyridine-2-carboxamide] here?
Answer: 0.01 nM

Question: For `O=C(N[C@H]1CC[C@@H](n2c(=O)c3cc(F)cnc3n(-c3cccc(-c4ccc(O)cc4CN4CCOCC4)c3)c2=O)CC1)c1cn2cc(F)ccc2n1` [Example 103, 6-fluoro-N-{cis-4-[6-fluoro-1-[4′-hydroxy-2′-(morpholin-4-ylmethyl)biphenyl-3-yl]-2,4-dioxo-1,4-dihydropyrido[2,3-d]pyrimidin-3(2H)-yl]cyclohexyl}imidazo[1,2-a]pyridine-2-carboxamide], which IC50 is on record?
Answer: 0.00158 nM

Question: `CN(C)CCN(C)Cc1ccc(-c2cccc(-n3c(=O)n([C@H]4CC[C@@H](NC(=O)c5cn6c(n5)CCCC6)CC4)c(=O)c4cc(F)cnc43)c2)cc1` [Example 133, N-{cis-4-[1-(4′-{[[2-(dimethylamino)ethyl](methyl)amino]methyl}biphenyl-3-yl)-6-fluoro-2,4-dioxo-1,4-dihydropyrido[2,3-d]pyrimidin-3(2H)-yl]cyclohexyl}-5,6,7,8-tetrahydroimidazo[1,2-a]pyridine-2-carboxamide] was tested. Which IC50 did it give?
Answer: 0.01 nM

Question: `Cc1cccc(C(=O)N[C@H]2CC[C@@H](n3c(=O)c4cc(F)cnc4n(-c4cccc(-c5ccc(CN6CCCNCC6)cc5)c4)c3=O)CC2)n1` [Example 356, N-{cis-4-[1-[4′-(1,4-diazepan-1-ylmethyl)biphenyl-3-yl]-6-fluoro-2,4-dioxo-1,4-dihydropyrido[2,3-d]pyrimidin-3(2H)-yl]cyclohexyl}-6-methylpyridine-2-carboxamide] was tested. Which IC50 did it give?
Answer: 0.0631 nM

Question: For `Cc1cccc(C(=O)N[C@H]2CC[C@@H](n3c(=O)c4cc(F)cnc4n(-c4cccc(-c5ccc(CN6CCN(C7CCCC7)CC6)cc5)c4)c3=O)CC2)n1` [Example 294, N-{cis-4-[1-{4′-[(4-cyclopentylpiperazin-1-yl)methyl]biphenyl-3-yl}-6-fluoro-2,4-dioxo-1,4-dihydropyrido[2,3-d]pyrimidin-3(2H)-yl]cyclohexyl}-6-methylpyridine-2-carboxamide], which IC50 is on record?
Answer: 0.0158 nM

Question: How did the IC50 turn out when `CN(C)C1(C(=O)N[C@H]2CC[C@@H](n3c(=O)c4cc(F)cnc4n(-c4cccc(-c5ccc(CN6CCN(CC(=O)N7CCOCC7)CC6)cc5)c4)c3=O)CC2)CC1` [Example 212, 1-(dimethylamino)-N-{cis-4-[6-fluoro-1-(4′-{[4-(2-morpholin-4-yl-2-oxoethyl)piperazin-1-yl]methyl}biphenyl-3-yl)-2,4-dioxo-1,4-dihydropyrido[2,3-d]pyrimidin-3(2H)-yl]cyclohexyl} cyclopropanecarboxamide] was run?
Answer: 0.0126 nM

Question: For `O=C(N[C@H]1CC[C@@H](n2c(=O)c3cc(F)cnc3n(-c3cccc(-c4ccc(CCN5CCNCC5)cc4)c3)c2=O)CC1)c1cn2cc(F)ccc2n1` [Example 102, 6-fluoro-N-{cis-4-[6-fluoro-2,4-dioxo-1-[4′-(2-piperazin-1-ylethyl)biphenyl-3-yl]-1,4-dihydropyrido[2,3-d]pyrimidin-3 (2H)-yl]cyclohexyl}imidazo[1,2-c]pyridine-2-carboxamide], which IC50 is on record?
Answer: 0.00794 nM

Question: For `O=C(N[C@H]1CC[C@@H](n2c(=O)c3cc(F)cnc3n(-c3cccc(-c4ccc(CO)cc4)c3)c2=O)CC1)c1cn2cc(F)ccc2n1` [Example 25, 6-fluoro-N-{cis-4-[6-fluoro-1-[4′-(hydroxymethyl)biphenyl-3-yl]-2,4-dioxo-1,4-dihydropyrido[2,3-d]pyrimidin-3(2H)-yl]cyclohexyl}imidazo[1,2-a]pyridine-2-carboxamide.], which IC50 is on record?
Answer: 0.0251 nM

Question: Which IC50 does the source give for `CN(Cc1cc(O)ccc1-c1cccc(-n2c(=O)n([C@H]3CC[C@@H](NCc4cn5cc(F)ccc5n4)CC3)c(=O)c3cc(F)cnc32)c1)C1(CO)CC1` [Example 321, 6-fluoro-3-(cis-4-{[(6-fluoroimidazo[1,2-a]pyridin-2-yl)methyl]amino}cyclohexyl)-1-(4′-hydroxy-2′-{[[1-(hydroxymethyl)cyclopropyl](methyl)amino]methyl}biphenyl-3-yl)pyrido[2,3-c]pyrimidine-2,4(1H,3H)-dione] here?
Answer: 0.1 nM
